Tested on: 354836-022-R-J1-PDC multicell spheroid viability
Assay: Anticancer human tumor 354836-022-R-J1-PDC patient-derived head and neck squamous cell carcinoma cell line growth inhibition [PI3K]
Conditions: for IC50: curve of first compound; for viability, T/C: stronger effect = lower value
In short: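 Tumor cells were combined with HUVEC and MSCs into spheroids, then dosed with PI3K-inhibitor combinations over half-log ranges capped near clinical Cmax or 10 microM.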
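Further: spheroids exposed to agents for seven days before the viability read.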

With `CC(C)NCC(C(=O)N1CCN(c2ncnc3c2C(C)CC3O)CC1)c1ccc(Cl)cc1` (configuration not stated) + COc1c(OCCCN2CCOCC2)ccc2c3n(c(=NC(=O)c4cnc(N)nc4)nc12)CCN3 the IC50 (second compound 0.00316 µM) was 305 nM, the IC50 (second compound 0.01 µM) was 227 nM and the IC50 (second compound 0.0316 µM) was 119 nM. The IC50 (second compound 0.1 µM) was less than 31.6 nM, the IC50 (second compound 0.316 µM) was less than 31.6 nM and the IC50 (second compound 1 µM) was less than 31.6 nM. The viability, T/C (second compound 0.00316 µM, first compound 0.0316 µM) was 90.8%, the viability, T/C (second compound 0.00316 µM, first compound 0.1 µM) was 68.1% and the viability, T/C (second compound 0.00316 µM, first compound 0.316 µM) was 52.3%. It also gave a viability, T/C (second compound 0.00316 µM, first compound 1 µM) of 28.5%, a viability, T/C (second compound 0.00316 µM, first compound 3.16 µM) of 9.34% and a viability, T/C (second compound 0.00316 µM, first compound 10 µM) of 2.4%. It also gave a viability, T/C (second compound 0.01 µM, first compound 0.0316 µM) of 87.6%, a viability, T/C (second compound 0.01 µM, first compound 0.1 µM) of 66.5% and a viability, T/C (second compound 0.01 µM, first compound 0.316 µM) of 42.9%. The viability, T/C (second compound 0.01 µM, first compound 1 µM) was 24.8%, the viability, T/C (second compound 0.01 µM, first compound 3.16 µM) was 9.85% and the viability, T/C (second compound 0.01 µM, first compound 10 µM) was 2.96%. It also gave a viability, T/C (second compound 0.0316 µM, first compound 0.0316 µM) of 68.8%, a viability, T/C (second compound 0.0316 µM, first compound 0.1 µM) of 52.7% and a viability, T/C (second compound 0.0316 µM, first compound 0.316 µM) of 34.5%. For the same molecule, the viability, T/C (second compound 0.0316 µM, first compound 1 µM) was 19.4%, the viability, T/C (second compound 0.0316 µM, first compound 3.16 µM) was 7.83% and the viability, T/C (second compound 0.0316 µM, first compound 10 µM) was 2.13%. For the same molecule, the viability, T/C (second compound 0.1 µM, first compound 0.0316 µM) was 43%, the viability, T/C (second compound 0.1 µM, first compound 0.1 µM) was 39.6% and the viability, T/C (second compound 0.1 µM, first compound 0.316 µM) was 26.3%. The viability, T/C (second compound 0.1 µM, first compound 1 µM) was 13.3%, the viability, T/C (second compound 0.1 µM, first compound 3.16 µM) was 3.65% and the viability, T/C (second compound 0.1 µM, first compound 10 µM) was 1.29%. It also gave a viability, T/C (second compound 0.316 µM, first compound 0.0316 µM) of 11.6%, a viability, T/C (second compound 0.316 µM, first compound 0.1 µM) of 11.2% and a viability, T/C (second compound 0.316 µM, first compound 0.316 µM) of 5.73%. For the same molecule, the viability, T/C (second compound 0.316 µM, first compound 1 µM) was 3.46%, the viability, T/C (second compound 0.316 µM, first compound 3.16 µM) was 1.76% and the viability, T/C (second compound 0.316 µM, first compound 10 µM) was 0.91%. It also gave a viability, T/C (second compound 1 µM, first compound 0.0316 µM) of 1.35%, a viability, T/C (second compound 1 µM, first compound 0.1 µM) of 1.54% and a viability, T/C (second compound 1 µM, first compound 0.316 µM) of 1.33%. The viability, T/C (second compound 1 µM, first compound 1 µM) was 1.12%, the viability, T/C (second compound 1 µM, first compound 3.16 µM) was 1.14% and the viability, T/C (second compound 1 µM, first compound 10 µM) was 0.88%.
